Data from US4386103A, “Dichloroamino acid derivatives useful as potent germicidal and fungicidal agents” (Merck & Co., Inc., priority 1981, dated 1983).

Columns and labels:
Assay type in all cases: cell-based
Pseudamonas aeruginosa = assay: Contact germicidal screen, Pseudamonas aeruginosa ATCC No. 14502
Description: The organisms used in the contact germicidal screen are all maintained as stock cultures on nutrient agar […] 4° C. They are transferred and biochemically diagnosed monthly. The five organisms used are: The media used are: […] Overnight cultures of the test organisms are grown in tryptose phosphate broth. After 15-16 hours, the cultures are centrifuged at […] for 15 minutes, and the supernatant replaced with fresh warm (37° C.) media. After two hours of incubation, the absorbance of the culture at 650 nm is determined and diluted with nutrient broth to 1×10^7 colony forming units per ml (using a previous determined standard curve: colony forming units/ml vs. absorbance at 650). The diluted cultures are maintained at 4°-8° C. throughout the screen. The compounds are weighed into sterile 100 ml volumetric flasks, and immediately before screening dissolved in one of the following buffers: 0.1 M NaOAc pH 4.6 or 0.1 M NaH2 PO4 pH 7.0. If solubility poses a problem, 10-30% methanol is used to effect solution. Two denaturing agents are also tested: […] Horse Serum restored with 100 ml distilled water and 10% Trition×100. When used, 2.5 ml of the denaturing agent is mixed with 2.5 ml of double strength test solution thirty minutes before the bacterial suspension is added. The screen is initiated when 0.2 ml of the bacterial suspension is added to 5.0 ml of the test solution contained in a sterile 25 ml glass stoppered flask. At intervals of 0.5, 2.5, 5.0, 10.0 and 15.0 minutes, a loopful of the inoculated test solution is subcultured into 5 ml of sterile nutrient broth and mixed with a vortex, the high dilution serving to stop the action of the compound. All of the subculture tubes are incubated at 37° C. and checked for signs of growth by turbidity at 1, 3, 5 and 7 days. The earliest subculture time at which no growth is present is considered the endpoint and is recorded as the sterilization time. An aliquot of 0.2 ml of the diluted culture is transferred to 5 ml of buffer to simulate 0.2 ml in 5 ml of test solution. (a) Purity: A loopful of the inoculated buffer is streaked onto nutrient agar to check colony morphology and lack of contaminants. (b) Viability: A loopful of the inoculated buffer is subcultured to 5 ml of nutrient broth as in the screen and incubated at 37° C. for 24 hours. (c) Dilution of the Test Solution: A loopful of the test solution is transferred to a 5 ml tube of nutrient broth, and a loopful of the inoculated buffer is transferred to the same tube of broth. […] (d) Purity of Organisms in the Test Solution: After the 15 minute subculture, a loopful of the inoculated test solution is streaked onto nutrient agar to insure that contamination has not occurred during the screen. (e) lack of Bactericidal Activity of Buffers and Other Solvents: Before a buffer or other solvent is used as a diluent, it is screened against the five organisms to insure that the buffer or solvent has no antibacterial activity itself.

Aspergillus fumigatus = assay: Contact fungicidal screen, Aspergillus fumigatus; settings: 0.1M NaOAc pH 4.6
Description: The organisms used in the Contact Fungicidal Screen are a dermatophyte, trychophyton mentagrophytes, frequently associated with athlete's foot; a yeast, Candida albican, causative agent of thrush and vaginitis; a phycomycete, Rhizopus oryzae, commonly known as black bread mold; an ascomycete, Aspergillus fumagatis, found in chicken droppings and causing lung infections; and another dermatophyte, Microsporum canis, which causes ringworm. These organisms are maintained as stock cultures at 4° C. on agar […] of the following composition: dextrose 2%, Neopeptone (Difco) 1%, agar 2%. Fluid medium of the same nutrient composition (without agar) was used to test the viability of the organisms after exposure to the fungicide. This medium is also known as Sabouraud's medium. Sabouraud's agar plate cultures of Aspergillus fumigatus, Microsporum canis, and a different culture of Trychophyton mentagrophytes are prepared by planting an inoculum at the center of an agar plate and incubating at 25°-30° C. for seven to ten days. The mycelial mats are removed from the surface of the agar and prepared in the same manner as the Rhizopus culture. The compounds are weighed into heat sterilized 100 ml volumetric flasks and immediately before screening dissolved in 0.1 M NaOAc pH 4.6 buffer (test solutions). The Aspergillus, Candida, Microsporum and Rhizopus species are screened in a slightly different manner. Basically, the procedure for the Contact Germicidal Efficiency Screen is utilized. After the test solutions are made up, 5 ml aliquots are pipetted into heat sterilized 25 ml glass stoppered erlenmeyer flasks. The screen is initiated when 0.5 ml of the 5×10^6 cell (spore) per ml suspension is added to the flask containing 5 ml of the test solution. […] The subculture tubes are incubated at 25°-30° C. for ten days with daily observation for mycelial growth. The earliest subculture time at which no growth is present is considered the endpoint and is recorded as the sterilization time. To insure the viability of the culture, a 0.5 ml aliquot of the 5×10^6 cells (spores) per ml suspension is transferred to 5 ml of the pH 4.6 buffer. A loopful of the inoculated buffer is then subcultured to 7 ml of fluid Sabouraud's medium and incubated at 25°-30° C. for ten days. To insure that the dilution of the test solution into the subculture medium does stop the action, a loopful of the test solution and a loopful of the inoculated buffer are transferred into the same subculture tube. This tube is also incubated at 25°-30° C. for ten days.

germs = assay: Germicidal activity, lowest active concentration; settings: read-out: concentration at which germicidal activity is shown
[1] = 10.0+ PPM, 0.1M NaOAc pH 4.6, screened simultaneously with four other compounds
[2] = 300 PPM with 50% Horse Serum, 0.1M NaOAc pH 4.6
[3] = 300 PPM with 50% Triton X100, 0.1M NaOAc pH 4.6
[4] = 1000 PPM with 50% Horse Serum, 0.1M NaOAc pH 4.6

For `CC(C)(CC(=O)O)N(Cl)Cl` [(II)], the “Sterilization Time” value (Pseudamonas aeruginosa; 1.8 PPM, 0.1M NaOAc pH 4.6) was 15 min, the “Sterilization Time” value (Pseudamonas aeruginosa; 4.5 PPM, 0.1M NaOAc pH 4.6) was 5.0 min and the “Sterilization Time” value (Pseudamonas aeruginosa; [1]) was 2.5 min. For the same molecule, the “Sterilization Time (summary)” value (Pseudamonas aeruginosa; 10 PPM, 0.1M NaOAc pH 4.6) was 2.5 min, the “Sterilization Time” value (Pseudamonas aeruginosa; 10.0 PPM, 0.1M NaOAc pH 4.6) was 2.5 min and the “Sterilization Time” value (Pseudamonas aeruginosa; 12.2 PPM, 0.1M NaOAc pH 4.6) was 2.5 min. The “Sterilization Time” value (Pseudamonas aeruginosa; 32.1 PPM, 0.1M NaOAc pH 4.6) was 2.5 min, the “Sterilization Time” value (Pseudamonas aeruginosa; 51.0 PPM, Triton X100 (10% solution):pH 4.6 buffer 1:1) was 2.5 min and the “Sterilization Time” value (Pseudamonas aeruginosa; 51.0 PPM, horse serum:pH 4.6 buffer 1:1) was 15 min. The “Sterilization Time” value (Pseudamonas aeruginosa; 71.7 PPM, 0.1M NaOAc pH 4.6) was 0.5 min, the “Sterilization Time (summary)” value (Pseudamonas aeruginosa; 100 PPM, 0.1M NaOAc pH 4.6) was 0.5 min and the “Sterilization Time” value (Pseudamonas aeruginosa; 104.7 PPM, 0.1M NaOAc pH 4.6) was 0.5 min. The “Sterilization Time” value (Pseudamonas aeruginosa; 107.8 PPM, 0.1M NaH2PO4 pH 7.0) was 15 min, the “Sterilization Time” value (Pseudamonas aeruginosa; 298.9 PPM, 0.1M NaOAc pH 4.6) was 0.5 min and the “Sterilization Time (summary)” value (Pseudamonas aeruginosa; [2]) was 15 min. For the same molecule, the “Sterilization Time (summary)” value (Pseudamonas aeruginosa; [3]) was 0.5 min, the “Sterilization Time” value (Pseudamonas aeruginosa; 300 PPM, pH 4.6 buffer with 10% serum) was 0.5 min and the “Sterilization Time” value (Pseudamonas aeruginosa; 300 PPM, pH 4.6 buffer with 20% serum) was 2.5 min. The “Sterilization Time” value (Pseudamonas aeruginosa; 300 PPM, pH 4.6 buffer with 35% serum) was 10.0 min, the “Sterilization Time” value (Pseudamonas aeruginosa; 304.6 PPM, horse serum:pH 4.6 buffer 1:1) was 15 min and the “Sterilization Time” value (Pseudamonas aeruginosa; 304.8 PPM, Triton X100 (10% solution):pH 4.6 buffer 1:1) was 0.5 min. For the same molecule, the “Sterilization Time” value (Pseudamonas aeruginosa; 316.6 PPM, 0.1M NaH2PO4 pH 7.0) was 5.0 min, the “Sterilization Time” value (Pseudamonas aeruginosa; 606.9 PPM, pH 4.6 buffer with 33% serum) was 2.5 min and the “Sterilization Time” value (Pseudamonas aeruginosa; 899.25 PPM, pH 4.6 buffer with 25% serum) was 0.5 min. For the same molecule, the “Sterilization Time (summary)” value (Pseudamonas aeruginosa; [4]) was 2.5 min, the “Sterilization Time (summary)” value (Pseudamonas aeruginosa; 1000 PPM, 0.1M NaOAc pH 4.6) was 0.5 min and the “Sterilization Time” value (Pseudamonas aeruginosa; 1001.2 PPM, horse serum:pH 4.6 buffer 1:1) was 2.5 min. The “Sterilization Time” value (Pseudamonas aeruginosa; 1014.8 PPM, 0.1M NaOAc pH 4.6) was 0.5 min, the “Sterilization Time” value (Pseudamonas aeruginosa; 1016.0 PPM, 0.1M NaH2PO4 pH 7.0) was 2.5 min and the “Sterilization Time” value (Aspergillus fumigatus; 10 PPM) was 15 min. The “Sterilization Time” value (Aspergillus fumigatus; 100 PPM) was 15 min, the “Sterilization Time” value (Aspergillus fumigatus; 1000 PPM) was 15 min and the minimal effective concentration (germs) was at most 5 µg/mL.
`CC(C)(CCC(=O)O)N(Cl)Cl` [(III), 4-Dichloroamino-4-methylvaleric acid] was tested, and the “Sterilization Time” value (Pseudamonas aeruginosa; 9.6 PPM, 0.1M NaOAc pH 4.6) was 5.0 min, the “Sterilization Time” value (Pseudamonas aeruginosa; 9.7 PPM, 0.1M NaH2PO4 pH 7.0) was 15 min and the “Sterilization Time” value (Pseudamonas aeruginosa; [1]) was 2.5 min. For the same molecule, the “Sterilization Time (summary)” value (Pseudamonas aeruginosa; 10 PPM, 0.1M NaOAc pH 4.6) was 2.5 min, the “Sterilization Time (summary)” value (Pseudamonas aeruginosa; 100 PPM, 0.1M NaOAc pH 4.6) was 0.5 min and the “Sterilization Time” value (Pseudamonas aeruginosa; 102.2 PPM, 0.1M NaOAc pH 4.6) was 0.5 min. For the same molecule, the “Sterilization Time” value (Pseudamonas aeruginosa; 103.5 PPM, 0.1M NaH2PO4 pH 7.0) was 15 min, the “Sterilization Time (summary)” value (Pseudamonas aeruginosa; [2]) was 15 min and the “Sterilization Time (summary)” value (Pseudamonas aeruginosa; [3]) was 2.5 min. For the same molecule, the “Sterilization Time” value (Pseudamonas aeruginosa; 308.0 PPM, Triton X100 (10% solution):pH 4.6 buffer 1:1) was 2.5 min, the “Sterilization Time” value (Pseudamonas aeruginosa; 308.0 PPM, horse serum:pH 4.6 buffer 1:1) was 15 min and the “Sterilization Time (summary)” value (Pseudamonas aeruginosa; [4]) was 5.0 min. The “Sterilization Time (summary)” value (Pseudamonas aeruginosa; 1000 PPM, 0.1M NaOAc pH 4.6) was 0.5 min, the “Sterilization Time” value (Pseudamonas aeruginosa; 1000.0 PPM, horse serum:pH 4.6 buffer 1:1) was 5.0 min and the “Sterilization Time” value (Pseudamonas aeruginosa; 1007.7 PPM, 0.1M NaOAc pH 4.6) was 0.5 min. For the same molecule, the “Sterilization Time” value (Pseudamonas aeruginosa; 1012.3 PPM, 0.1M NaH2PO4 pH 7.0) was 5.0 min, the “Sterilization Time” value (Aspergillus fumigatus; 10 PPM) was 15 min and the “Sterilization Time” value (Aspergillus fumigatus; 100 PPM) was 15 min. For the same molecule, the “Sterilization Time” value (Aspergillus fumigatus; 1000 PPM) was 10.0 min.
For `CC(C)(COC(=O)CCCC(=O)O)N(Cl)Cl` [(V), 2-dichloramino-2-methylpropyl-hemiglutarate], the “Sterilization Time” value (Pseudamonas aeruginosa; [1]) was 5.0 min, the “Sterilization Time” value (Pseudamonas aeruginosa; 10.0 PPM, 0.1M NaH2PO4 pH 7.0) was 15 min and the “Sterilization Time (summary)” value (Pseudamonas aeruginosa; 10 PPM, 0.1M NaOAc pH 4.6) was 5.0 min. For the same molecule, the “Sterilization Time” value (Pseudamonas aeruginosa; 10.0 PPM, 0.1M NaOAc pH 4.6) was 10.0 min, the “Sterilization Time” value (Pseudamonas aeruginosa; 99.1 PPM, 0.1M NaOAc pH 4.6) was 2.5 min and the “Sterilization Time (summary)” value (Pseudamonas aeruginosa; 100 PPM, 0.1M NaOAc pH 4.6) was 2.5 min. The “Sterilization Time” value (Pseudamonas aeruginosa; 106.7 PPM, 0.1M NaH2PO4 pH 7.0) was 15 min, the “Sterilization Time” value (Pseudamonas aeruginosa; 291.4 PPM, Triton X100 (10% solution):pH 4.6 buffer 1:1) was 2.5 min and the “Sterilization Time” value (Pseudamonas aeruginosa; 291.4 PPM, horse serum:pH 4.6 buffer 1:1) was 15 min. For the same molecule, the “Sterilization Time (summary)” value (Pseudamonas aeruginosa; [2]) was 15 min, the “Sterilization Time (summary)” value (Pseudamonas aeruginosa; [3]) was 2.5 min and the “Sterilization Time” value (Pseudamonas aeruginosa; 911.8 PPM, 0.1M NaOAc pH 4.6) was 0.5 min. The “Sterilization Time (summary)” value (Pseudamonas aeruginosa; [4]) was 10.0 min, the “Sterilization Time (summary)” value (Pseudamonas aeruginosa; 1000 PPM, 0.1M NaOAc pH 4.6) was 0.5 min and the “Sterilization Time” value (Pseudamonas aeruginosa; 1024.4 PPM, 0.1M NaH2PO4 pH 7.0) was 15 min. The “Sterilization Time” value (Pseudamonas aeruginosa; 1042.0 PPM, horse serum:pH 4.6 buffer 1:1) was 10.0 min, the “Sterilization Time” value (Aspergillus fumigatus; 10 PPM) was 15 min and the “Sterilization Time” value (Aspergillus fumigatus; 100 PPM) was 15 min. The “Sterilization Time” value (Aspergillus fumigatus; 1000 PPM) was 15 min.
